The values below come from article PMC4492757 (Pharmacology Research & Perspectives, 2015).

Molecules are shown by their SMILES.

Holding throughout (format): cell-based
Experiment [1] has as its target T1, hFFA2 (Homo sapiens, UniProt O15552).
T1 sequence (O15552 1-330): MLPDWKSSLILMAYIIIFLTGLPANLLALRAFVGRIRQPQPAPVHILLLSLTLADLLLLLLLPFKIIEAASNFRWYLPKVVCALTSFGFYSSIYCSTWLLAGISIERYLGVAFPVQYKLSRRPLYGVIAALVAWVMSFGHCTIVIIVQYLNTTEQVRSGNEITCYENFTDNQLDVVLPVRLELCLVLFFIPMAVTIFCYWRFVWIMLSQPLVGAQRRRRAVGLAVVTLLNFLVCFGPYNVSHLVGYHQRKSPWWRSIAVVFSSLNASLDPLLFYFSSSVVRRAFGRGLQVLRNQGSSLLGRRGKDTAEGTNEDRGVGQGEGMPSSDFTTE
Nature of the experiment: LANCE cAMP assay, U2OS cells.

Experiment [2] deals with T1, hFFA2. Briefly: yeast reporter assay, antagonism.
In experiment [3] the target is T1, hFFA2. Nature of the experiment: yeast reporter assay, operational model fit.
Experiment [4] has as its target T1, hFFA2. Nature of the experiment: yeast FUS1-HIS3 reporter growth assay.

`CC(=O)O` [C2, acetate] had an EC50 at hFFA2 [1] of 126 µM.
Turning to `O=C(N[C@@H](Cc1c[nH]c2ccccc12)C(=O)O)c1ccc(Cl)cc1` [N-CBT, N-(4-Chlorobenzoyl)-L-tryptophan], the Kb at hFFA2 [2] was 501 nM.
As to `O=C(O)C[C@H](C(=O)Nc1nc(-c2ccccc2Cl)cs1)c1ccccc1` [compound 9, (S)-4-(4-(2-chlorophenyl)thiazol-2-ylamino)-4-oxo-3-phenylbutanoic acid], on hFFA2 [3], the Kd is 155 nM.
`CN(C(=O)[C@H]1CCCC[C@H]1C(=O)O)c1nc(-c2ccccc2Cl)cs1` [compound 101, cis-2-((4-(2-chlorophenyl)thiazol-2-yl)(methyl)carbamoyl)cyclohexaneccarboxylic acid] had an IC50 at hFFA2 [4] of 186 nM. In other words, the sub-micromolar range.
